Data as given in patent US20250049078A1, “ECO-FRIENDLY ADDITIVES FOR HAY AND SILAGE INOCULANTS MINIMIZING GREENHOUSE GAS EMISSIONS” (Kansas State University Research Foundation, priority 2021, published 2025).

How the values were obtained:
[1] = test system: N2O production from corn, alfalfa, and sorghum silages (denitrifiers); experiment: N2O production from laboratory mini silos (simulated silage) with different treatments, fourth part of the study; conditions: for reduction of N2O production: inoculant + additive 0.1% (w/w), corn, alfalfa, sorghum silages, FIG. 4A, three replicates
Description: GHG production from simulated silage. Laboratory experiments were performed to estimate the GHG emission potentials from silage conservation (i.e. anaerobic conservation). In a first part of the study, N2O production from forage silos was studied. The forages used were corn, alfalfa, and sorghum. The mini silos consisted of 1 L glass jars connected to a 1-L Tedlar bag. The forage was chopped into 2-3 cm pieces with a laboratory chopper and ensiled in laboratory mini silos at a bulk density of 700 kg/m^3 (700 grams per silo). The experiments were performed in an incubator at 30° C. in the dark, and the produced gas volume and composition were measured periodically for 30 days.
(§1) The treatments compared in this research consisted of (1) no treatment, (2) commercial silage inoculant (Pioneer® inoculant), (3) inoculant+chlorate (0.1%, w/w), and (4) inoculant+acetate (0.1%, w/w). Three replicates for each treatment were performed.
In the fourth part of the study, three replicates for each treatment were added to forage silos prepared as described in paragraph [0052].

[2] = test system: N2O production from simulated silage (denitrifiers); experiment: N2O production from alfalfa mini silos (simulated silage) with different treatments, fifth part of the study; conditions: for effect on N2O production: amendment 0.1% (w/w), P<0.001
Description: In a second part of the study, N2O and CH4 production from forage silos were studied. The forage used was second cut alfalfa (HVX MegaTron) harvested at the early flower stage. The mini silos consisted of 1 L glass jars connected to a 1-L Tedlar bag. The forage was chopped into 2-3 cm pieces with a laboratory chopper and ensiled in laboratory mini silos at a bulk density of 700 kg/m^3 (700 grams per silo). The experiments were performed in an incubator at 30° C. in the dark, and the produced gas volume and composition were measured periodically for 35 days.
as §1
In the fifth part of the study, three replicates for each treatment were added to forage silos prepared as described in paragraph [0054].

Row | SMILES | reduction of N2O production [1] | reduction of total amount of N2O ([2]; acetate as a sodium salt, 1 g per kg-forage, preliminary study) | effect on N2O production ([2]; preliminary study) | reduction of N2O production ([2]; inoculant + 0.1% (w/w) acetate, alfalfa silage, P<0.01, FIG. 4C) | reduction of N2O ([1]; lower concentrations up to 0.01% (w/w), alfalfa silage, FIG. 4B) | reduction of N2O production (fold) ([2]; inoculant + 0.1% (w/w) chlorate, alfalfa silage, FIG. 4C)
1 | CC(=O)O [acetate] | up to 25% | 25% | significantly repressed | 25% | – | –
2 | [O-][Cl+2]([O-])O [chlorate] | up to 99% | – | significantly repressed | – | higher than 90% | more than ten times
